Measurements taken from patent US4101381A, “Method and reagent for the determination of substances forming hydrogen peroxide” (Boehringer Mannheim GmbH, priority 1976, dated 1978).
Values after ≈ are worked out from the molar mass of the structure shown. Read-outs that look alike come from different tables or passages of the source.

Experiments:
[1] = solubility in an aqueous medium at pH 1; format: physicochemical
[2] = prior-art method; cited from earlier work

| Compound | solubility ([1]; read-out: solubility) [mg/mL] | solubility ([1]; read-out: solubility in an aqueous medium) [mg/mL] | stability [2] |
| --- | --- | --- | --- |
| Cn1c(=NN)sc2cc(S(=O)(=O)O)ccc21 [MBTH sulfonate, 3-methyl-2-(sulfonyl)-benzothiazolonehydrazone] | 6 | – | – |
| Cn1c(=NN)sc2ccccc21 [MBTH, 3-methylbenzothiazolonehydrazone] | – | 48 (≈ 268 mM) | low stability |
